Data: patent publication US20220378706A1, “PHARMACEUTICAL COMPOSITION COMPRISING PDE9 INHIBITOR” (Eisai R&D Management Co., Ltd., priority 2017, published 2022)
Like-named read-outs stand apart in the source and are kept apart here.

Assay: Single dose clinical study: plasma Compound A pharmacokinetics
Assay type: in vivo, human
Protocol: This was a single center, single dose, randomized, double blind, placebo controlled study in healthy subjects. It consisted of 4 parts: Parts A, B, C, and D. Each of the four study parts had 2 phases: Prerandomization Phase and Randomization Phase. The Prerandomization Phase lasted up to 30 days and consisted of a Screening Period and a Baseline Period, during which each subject's study eligibility was determined and baseline assessments were performed.
In Part A, there were 8 sequential cohorts of healthy adult subjects (18-50 years of age). Subjects were randomly assigned to Compound A or placebo in a ratio of 6:2, respectively. Subjects in the Compound A cohorts were treated with single ascending doses of 10, 25, 50, 100, 200, 400, 800, or 1200 mg.
In Part B, there were 4 cohorts of healthy adult subjects (18-50 years of age). There were 8 subjects in Cohort 1, with 6 subjects randomly assigned to receive single doses of Compound A (400 mg) and 2 subjects randomly assigned to receive placebo. There were 7 subjects in Cohort 2 and Cohort 3, each with 6 subjects randomly assigned to receive single doses of Compound A (100 and 200 mg, respectively) and 1 subject randomly assigned to receive placebo. The dose of 100 mg selected in Cohort 2 was based on preliminary analysis of Cohort 1 data; this dose was predicted from PK/PD modeling to achieve a sustained CSF cGMP increase from baseline of approximately 200% when administered to steady state, and thereby provided a potentially therapeutic dose for further evaluation in future studies. There were 7 subjects in Cohort 4, with 6 subjects randomly assigned to receive a single dose of Compound A (50 mg [n=3] or 75 mg [n=3]) and 1 subject randomly assigned to receive placebo. The doses for Cohorts 3 and 4 were selected based on PK/PD modeling of the data in Cohorts 1 and 2.
Subjects in Cohort 2 who had received Compound A 100 mg or placebo under fasted conditions (1st Treatment Period) also participated in an evaluation of food effect on the PK of Compound A (2nd Treatment Period). After a washout period of at least 13 days (or 5 half-lives of Compound A, whichever was longer), subjects were admitted to the clinic for baseline assessments (2nd Baseline Period) and then received a single dose of the same treatment (Compound A 100 mg or placebo) after consuming a high fat and high calorie meal over 30 minutes. Blood PK samples were collected at prespecified time points. Safety evaluations were also assessed. CSF was not collected for PD evaluation during the 2nd Treatment Period. A Follow Up Visit occurred on Day 10 of Treatment Period 2.
In Part C, there was 1 cohort of 8 healthy elderly subjects (65 to 85 years of age) randomly assigned to receive a single dose of Compound A 100 mg or placebo in a ratio of 6:2, respectively.
In Part D, 3 cohorts of healthy adult Japanese subjects were randomized in parallel. There were 7 subjects in each cohort and subjects were randomly assigned to receive single doses of Compound A (25, 100, or 400 mg) or placebo in a ratio of 6:1, respectively.
Blood samples for determination of plasma Compound A concentrations were collected from predose to 216 hours postdose. On Day 1, blood PK samples were collected at predose and postdose 0.5 (30 minutes), 1, 1.5, 2, 3, 4, 5, 6, 8, 12, and 18 hours. Thereafter, samples were collected on Day 2 (24 and 36 hours postdose), Day 3 (48 hours postdose), Day 4 (72 hours postdose), Day 5 (96 hours postdose), Day 6 (120 hours postdose), Day 7 (144 hours postdose), and Day 10 (216 hours postdose).
Blood samples for determination of plasma Compound A concentrations were collected from predose to 216 hours postdose. For all cohorts, blood PK samples were collected on Day 1 at predose and postdose at 0.5 (30 minutes), 1, 1.5, 2, 3, 4, 5, 6, 8, 10, 12, and 18 hours. […]

[1] = 100 mg after high-fat and high-calorie meal
[2] = 400 mg, with weight as a covariate
[3] = Elderly:Younger Adults, single oral 100 mg
[4] = Japanese:non-Japanese, 25 mg, with weight as covariate
[5] = Japanese:non-Japanese, 25 mg, without weight as covariate
[6] = Japanese:non-Japanese, 100 mg, with weight as covariate
[7] = Japanese:non-Japanese, 100 mg, without weight as covariate
[8] = Japanese:non-Japanese, 400 mg, with weight as covariate
[9] = Japanese:non-Japanese, 400 mg, without weight as covariate

With `COc1ncc(C)c(-c2ccc3c(c2)[nH]c(=O)c2cnn([C@H]4CCOC4)c23)c1C` [Compound A, (S)-7-(2-methoxy-3,5-dimethylpyridin-4-yl)-1-(tetrahydrofuran-3-yl)-1H-pyrazolo[4,3-c]quin olin-4(5H)-one] the “geometric LS mean Cmax higher in Japanese than non-Japanese” value (25 mg, with weight as a covariate) was 35.6%, the “geometric LS mean AUC(0-inf) higher in elderly than in younger healthy adult subjects” value (100 mg) was “approximately 41.5%” and the “geometric LS mean Cmax higher in elderly than in younger healthy adult subjects” value (100 mg) was “approximately 45.5%”. For the same compound, the “increase in the geometric LS mean Cmax, fed vs fasted” value (100 mg after high fat and high calorie meal) was 44.4%, the “increase in the geometric LS mean AUC(0-inf), fed vs fasted” value [1] was 19.2% and the “increase in the geometric LS mean Cmax, fed vs fasted” value [1] was 44.400. The “geometric LS mean Cmax higher in Japanese than non-Japanese” value (100 mg, with weight as a covariate) was 30.0%, the “geometric LS mean AUC(0-inf) higher in Japanese than non-Japanese” value [2] was 27.9% and the “geometric LS mean Cmax higher in Japanese than non-Japanese” value [2] was 40.4%. The “geometric LS mean Cmax higher in Japanese than non-Japanese across the 3 doses” value (25, 100, 400 mg) was 35.2%, the “AUC(0-inf) Geometric LS Mean Ratio (90% CI)” value [3] was 1.415 (1.168, 1.715) and the “Cmax Geometric LS Mean Ratio (90% CI)” value [3] was 1.455 (1.198, 1.766). For the same compound, the “AUC(0-inf) Geometric LS Mean Ratio (90% CI)” value (Fed:Fasted, 100 mg, Part B) was 1.192 (1.003, 1.418), the “AUC(0-t) Geometric LS Mean Ratio (90% CI)” value (Fed:Fasted, 100 mg, Part B) was 1.186 (0.992, 1.418) and the “Cmax Geometric LS Mean Ratio (90% CI)” value (Fed:Fasted, 100 mg, Part B) was 1.444 (1.210, 1.723). The “AUC(O-inf) Geometric LS Mean Ratio (90% CI)” value [4] was 1.035 (0.819, 1.308), the “Cmax Geometric LS Mean Ratio (90% CI)” value [4] was 1.356 (1.082, 1.699) and the “AUC(O-inf) Geometric LS Mean Ratio (90% CI)” value [5] was 1.057 (0.845, 1.323). The “Cmax Geometric LS Mean Ratio (90% CI)” value [5] was 1.394 (1.122, 1.732), the “AUC(O-inf) Geometric LS Mean Ratio (90% CI)” value [6] was 0.935 (0.767, 1.140) and the “Cmax Geometric LS Mean Ratio (90% CI)” value [6] was 1.300 (1.074, 1.573). For the same compound, the “AUC(O-inf) Geometric LS Mean Ratio (90% CI)” value [7] was 0.944 (0.778, 1.147), the “Cmax Geometric LS Mean Ratio (90% CI)” value [7] was 1.317 (1.091, 1.589) and the “AUC(O-inf) Geometric LS Mean Ratio (90% CI)” value [8] was 1.279 (1.035, 1.580). The “Cmax Geometric LS Mean Ratio (90% CI)” value [8] was 1.404 (1.145, 1.721), the “AUC(O-inf) Geometric LS Mean Ratio (90% CI)” value [9] was 1.300 (1.059, 1.595) and the “Cmax Geometric LS Mean Ratio (90% CI)” value [9] was 1.433 (1.176, 1.747). For the same compound, the AUC (human, plasma, oral, 25 mg, Japanese, 25 mg, with weight as covariate, read-out: AUC(O-inf) Geometric LS Means Test) was 4500 ng·h/mL, the Cmax (human, plasma, oral, 25 mg, Japanese, 25 mg, with weight as covariate, read-out: Cmax Geometric LS Means Test) was 207 ng/mL and the AUC (human, plasma, oral, 25 mg, Japanese, 25 mg, without weight as covariate, read-out: AUC(O-inf) Geometric LS Means Test) was 4580 ng·h/mL. It also gave a Cmax (human, plasma, oral, 25 mg, Japanese, 25 mg, without weight as covariate, read-out: Cmax Geometric LS Means Test) of 212 ng/mL, an AUC (human, plasma, oral, 25 mg, non-Japanese, 25 mg, with weight as covariate, read-out: AUC(O-inf) Geometric LS Means Reference) of 4350 ng·h/mL and a Cmax (human, plasma, oral, 25 mg, non-Japanese, 25 mg, with weight as covariate, read-out: Cmax Geometric LS Means Reference) of 152 ng/mL. For the same compound, the AUC (human, plasma, oral, 25 mg, non-Japanese, 25 mg, without weight as covariate, read-out: AUC(O-inf) Geometric LS Means Reference) was 4340 ng·h/mL, the Cmax (human, plasma, oral, 25 mg, non-Japanese, 25 mg, without weight as covariate, read-out: Cmax Geometric LS Means Reference) was 152 ng/mL and the AUC(0-inf) (human, plasma, oral, 100 mg, Fasted, 100 mg, Part B, read-out: AUC(0-inf) Geometric LS Means Reference) was 14500 ng·h/mL. For the same compound, the AUC(0-t) (human, plasma, oral, 100 mg, Fasted, 100 mg, Part B, read-out: AUC(0-t) Geometric LS Means Reference) was 14400 ng·h/mL, the Cmax (human, plasma, oral, 100 mg, Fasted, 100 mg, Part B, read-out: Cmax Geometric LS Means Reference) was 371 ng/mL and the AUC(0-inf) (human, plasma, oral, 100 mg, Fed, 100 mg, Part B, read-out: AUC(0-inf) Geometric LS Means Test) was 17300 ng·h/mL. The AUC(0-t) (human, plasma, oral, 100 mg, Fed, 100 mg, Part B, read-out: AUC(0-t) Geometric LS Means Test) was 17100 ng·h/mL, the Cmax (human, plasma, oral, 100 mg, Fed, 100 mg, Part B, read-out: Cmax Geometric LS Means Test) was 536 ng/mL and the AUC (human, plasma, oral, 100 mg, Japanese, 100 mg, with weight as covariate, read-out: AUC(O-inf) Geometric LS Means Test) was 14200 ng·h/mL. For the same compound, the Cmax (human, plasma, oral, 100 mg, Japanese, 100 mg, with weight as covariate, read-out: Cmax Geometric LS Means Test) was 491 ng/mL, the AUC (human, plasma, oral, 100 mg, Japanese, 100 mg, without weight as covariate, read-out: AUC(O-inf) Geometric LS Means Test) was 14200 ng·h/mL and the Cmax (human, plasma, oral, 100 mg, Japanese, 100 mg, without weight as covariate, read-out: Cmax Geometric LS Means Test) was 492 ng/mL. It also gave an AUC (human, plasma, oral, 100 mg, non-Japanese, 100 mg, with weight as covariate, read-out: AUC(O-inf) Geometric LS Means Reference) of 15200 ng·h/mL, a Cmax (human, plasma, oral, 100 mg, non-Japanese, 100 mg, with weight as covariate, read-out: Cmax Geometric LS Means Reference) of 378 ng/mL and an AUC (human, plasma, oral, 100 mg, non-Japanese, 100 mg, without weight as covariate, read-out: AUC(O-inf) Geometric LS Means Reference) of 15000 ng·h/mL. For the same compound, the Cmax (human, plasma, oral, 100 mg, non-Japanese, 100 mg, without weight as covariate, read-out: Cmax Geometric LS Means Reference) was 373 ng/mL, the half-life (human, plasma, oral, 100 mg, read-out: mean terminal half-life longer in elderly than in younger healthy adult subjects (converted)) was roughly 10 h and the AUC (human, plasma, oral, 400 mg, Japanese, 400 mg, with weight as covariate, read-out: AUC(O-inf) Geometric LS Means Test) was 46000 ng·h/mL. The Cmax (human, plasma, oral, 400 mg, Japanese, 400 mg, with weight as covariate, read-out: Cmax Geometric LS Means Test) was 1170 ng/mL, the AUC (human, plasma, oral, 400 mg, Japanese, 400 mg, without weight as covariate, read-out: AUC(O-inf) Geometric LS Means Test) was 46500 ng·h/mL and the Cmax (human, plasma, oral, 400 mg, Japanese, 400 mg, without weight as covariate, read-out: Cmax Geometric LS Means Test) was 1180 ng/mL. It also gave an AUC (human, plasma, oral, 400 mg, non-Japanese, 400 mg, with weight as covariate, read-out: AUC(O-inf) Geometric LS Means Reference) of 36000 ng·h/mL.
